Laboratory results from patent US20200331850A1, “NOVEL SULFONAMIDE CARBOXAMIDE COMPOUNDS” (Inflazome Limited, priority 2017, published 2020).
pIC50: −log10 of the molar value. Counter-ions that a name gives are not always drawn.

Legend:
[1] = target: T1, NLRP3 (Homo sapiens, UniProt Q96P20); experiment: THP-1 cells pyroptosis assay (LPS + nigericin, resazurin readout); assay type: cell-based; design: Seed THP-1 cells (25,000 cells/well) containing 1.0 μg/ml LPS in 40 μl of RPMI medium; host or cells: THP-1 cells, LPS-primed and nigericin-stimulated; conditions: NLRP3 inhibitory activity in THP-1 cells, 1.0 μg/ml LPS, 5 μM nigericin
From the text: It is well established that the activation of NLRP3 leads to cell pyroptosis and this feature plays an important part in the manifestation of clinical disease (Yan-gang Liu et al., Cell Death & Disease, 2017, 8(2), e2579; Alexander Wree et al., Hepatology, 2014, 59(3), 898-910; Alex Baldwin et al., Journal of Medicinal Chemistry, 2016, 59(5), 1691-1710; Ema Ozaki et al., Journal of Inflammation Research, 2015, 8, 15-27; Zhen Xie & Gang Zhao, Neuroimmunology Neuroinflammation, 2014, 1(2), 60-65; Mattia Cocco et al., Journal of Medicinal Chemistry, 2014, 57(24), 10366-10382; T. Satoh et al., Cell Death & Disease, 2013, 4, e644). Therefore, it is anticipated that inhibitors of NLRP3 will block pyroptosis, as well as the release of pro-inflammatory cytokines (e.g. IL-1β) from the cell. THP-1 cells (ATCC # TIB-202) were grown in RPMI containing L-glutamine (Gibco #11835) supplemented with 1 mM sodium pyruvate (Sigma # S8636) and penicillin (100 units/ml)/streptomycin (0.1 mg/ml) (Sigma # P4333) in 10% Fetal Bovine Serum (FBS) (Sigma # F0804). The cells were routinely passaged and grown to confluency (˜10^6 cells/ml). On the day of the experiment, THP-1 cells were harvested and resuspended into RPMI medium (without FBS). The cells were then counted and viability (>90%) checked by Trypan blue (Sigma # T8154). Appropriate dilutions were made to give a concentration of 625,000 cells/ml. To this diluted cell solution was added LPS (Sigma # L4524) to give a […] Final Assay Concentration (FAC). 40 μl of the final preparation was aliquoted into each well of a 96-well plate. The plate thus prepared was used for compound screening. The following method step-by-step assay was followed for compound screening. • 1. Seed THP-1 cells (25,000 cells/well) containing 1.0 μg/ml LPS in 40 μl of RPMI medium (without FBS) in 96-well, black walled, clear bottom cell culture plates coated with poly-D-lysine (VWR #734-0317) • 2. Add 5 μl compound (8 points half-log dilution, with 10 μM top dose) or vehicle (DMSO 0.1% FAC) to the appropriate wells • 3. […] Add 5 μl nigericin (Sigma # N7143) (FAC 5 μM) to all wells • 5. […] At the end of the incubation period, spin plates at 300×g for 3 mins and remove supernatant • 7. Then add 50 μl of resazurin (Sigma # R7017) (FAC 100 μM resazurin in RPMI medium without FBS) and incubate plates for a further 1-2 hrs at 37° C. and 5% CO2 • 8. Plates were read in an Envision reader at Ex 560 nm and Em 590 nm • 9. IC50 data is fitted to a non-linear regression equation (log inhibitor vs response-variable slope 4-parameters) The results of the pyroptosis assay performed are summarised in Table 1 below as THP IC50.

[2] = target: T1, NLRP3; experiment: Human whole blood IL1β release assay (LPS + nigericin, AlphaLisa IL-1β); assay type: cell-based; design: Plate out 80 μl of whole blood containing 1βg/ml of LPS in 96-well, clear bottom cell culture plate; from tissue; host or cells: human whole blood from healthy donors, LPS-primed and nigericin-stimulated; conditions: NLRP3 inhibitory activity in human whole blood, IL-1β release, 10 μM nigericin, read-out: HWB IC50
Experimental: For systemic delivery, the ability to inhibit NLRP3 when the compounds are present within the bloodstream is of great importance. For this reason, the NLRP3 inhibitory activity of a number of compounds in human whole blood was investigated in accordance with the following protocol.
Human whole blood in Li-heparin tubes was obtained from healthy donors from a volunteer donor panel. • 1. Plate out 80 μl of whole blood containing 1βg/ml of LPS in 96-well, clear bottom cell culture plate (Corning #3585) • 2. Add 10 μl compound (8 points half-log dilution with 10 μM top dose) or vehicle (DMSO 0.1% FAC) to the appropriate wells • 3. Incubate for 3 hrs at 37° C., 5% CO2 • 4. Add 10 μl Nigericin (Sigma # N7143) (10 μM FAC) to all wells • 5. Incubate for 1 hr at 37° C., 5% CO2 • 6. At the end of the incubation period, spin plates at 300×g for 5 mins to pellet cells and remove 20 μl of supernatant and add to 96-well v-bottom plates for IL-1β analysis (note: these plates containing the supernatants can be stored at −80° C. to be analysed at a later date) • 7. IL-1β was measured according to the manufacturer protocol (Perkin Elmer-AlphaLisa IL-1 Kit AL220F-5000) • 8. IC50 data is fitted to a non-linear regression equation (log inhibitor vs response-variable slope 4-parameters)

T1 sequence (Q96P20 whole entry): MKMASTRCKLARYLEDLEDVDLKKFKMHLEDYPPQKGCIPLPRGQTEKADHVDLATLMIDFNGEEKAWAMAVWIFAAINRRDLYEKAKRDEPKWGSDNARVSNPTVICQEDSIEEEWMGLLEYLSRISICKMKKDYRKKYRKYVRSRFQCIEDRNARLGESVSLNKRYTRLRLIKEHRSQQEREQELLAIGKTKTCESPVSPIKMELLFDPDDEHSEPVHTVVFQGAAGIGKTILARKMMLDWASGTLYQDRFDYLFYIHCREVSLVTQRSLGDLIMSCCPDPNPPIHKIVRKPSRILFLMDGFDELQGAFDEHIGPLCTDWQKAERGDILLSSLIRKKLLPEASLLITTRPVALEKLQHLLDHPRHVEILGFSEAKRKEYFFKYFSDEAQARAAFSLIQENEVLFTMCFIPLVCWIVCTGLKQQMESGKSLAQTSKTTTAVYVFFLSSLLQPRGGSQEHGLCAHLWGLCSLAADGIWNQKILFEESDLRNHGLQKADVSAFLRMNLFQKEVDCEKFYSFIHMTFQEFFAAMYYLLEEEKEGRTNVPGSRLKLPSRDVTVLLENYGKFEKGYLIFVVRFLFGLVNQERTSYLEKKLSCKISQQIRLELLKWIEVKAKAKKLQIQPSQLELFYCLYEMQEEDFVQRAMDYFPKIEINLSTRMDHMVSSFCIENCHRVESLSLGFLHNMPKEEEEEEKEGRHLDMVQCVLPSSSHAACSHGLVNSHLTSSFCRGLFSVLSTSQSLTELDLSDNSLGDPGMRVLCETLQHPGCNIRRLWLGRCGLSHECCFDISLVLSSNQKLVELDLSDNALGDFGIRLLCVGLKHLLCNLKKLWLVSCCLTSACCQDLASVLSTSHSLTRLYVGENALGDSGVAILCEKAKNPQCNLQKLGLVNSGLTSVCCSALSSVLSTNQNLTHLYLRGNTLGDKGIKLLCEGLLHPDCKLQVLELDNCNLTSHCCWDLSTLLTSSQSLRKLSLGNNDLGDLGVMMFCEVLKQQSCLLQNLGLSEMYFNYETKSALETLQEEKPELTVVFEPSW

pIC50 [1] | pIC50 [2] | Structure (SMILES)
5.00 to 5.70 |  | CCN1CC2(CC(S(=O)(=O)NC(=O)Nc3c4c(cc5c3CCC5)CCC4)C2)C1 [Example 38, 2-Ethyl-N-((1,2,3,5,6,7-hexahydro-s-indacen-4-yl)carbamoyl)-2-azaspiro[3.3]heptane-6-sulfonamide, potassium salt]
5.00 to 5.70 |  | O=C(Nc1c2c(cc3c1CCC3)CCC2)NS(=O)(=O)CCCCN1CCC1 [Example 86, 4-(Azetidin-1-yl)-N-((1,2,3,5,6,7-hexahydro-s-indacen-4-yl)carbamoyl)butane-1-sulfonamide]
5.00 to 5.70 |  | O=C(Nc1c2c(cc3c1CCC3)CCC2)NS(=O)(=O)CC1CCN(C2COC2)C1 (stereo not shown) [Example 64, N-((1,2,3,5,6,7-Hexahydro-s-indacen-4-yl)carbamoyl)-1-(1-(oxetan-3-yl)pyrrolidin-3-yl)methanesulfonamide, Potassium Salt]
5.00 to 5.70 |  | COc1cc(-c2ccc3c(c2NC(=O)NS(=O)(=O)Cc2cccnc2)CCC3)ccn1 [Example 55, N-((5-(2-Methoxypyridin-4-yl)-2,3-dihydro-1H-inden-4-yl)carbamoyl)-1-(pyridin-3-yl)methanesulfonamide]
5.00 to 5.70 |  | CCN(CCCS(=O)(=O)NC(=O)Nc1c(-c2ccnc(C#N)c2)cc(F)cc1C(C)C)Cc1ccccc1 [Example 46, 3-(Benzyl(ethyl)amino)-N-((2-(2-cyanopyridin-4-yl)-4-fluoro-6-isopropylphenyl)carbamoyl)propane-1-sulfonamide]
5.00 to 5.70 |  | CC(C)N1CC2(CC(S(=O)(=O)NC(=O)Nc3c4c(cc5c3CCC5)CCC4)C2)C1 [Example 39, N-((1,2,3,5,6,7-Hexahydro-s-indacen-4-yl)carbamoyl)-2-isopropyl-2-azaspiro[3.3]heptane-6-sulfonamide, potassium salt]
5.00 to 5.70 |  | O=C(Nc1c2c(cc3c1CCC3)CCC2)NS(=O)(=O)CCCCN1CCOCC1 [Example 9, N-((1,2,3,5,6,7-Hexahydro-s-indacen-4-yl)carbamoyl)-4-morpholinobutane-1-sulfonamide, Potassium Salt]
5.00 to 5.70 |  | COc1cc(-c2cc(F)cc(C(C)C)c2NC(=O)NS(=O)(=O)Cc2cccnc2)ccn1 [Example 54, N-((4-Fluoro-2-isopropyl-6-(2-methoxypyridin-4-yl)phenyl)carbamoyl)-1-(pyridin-3-yl)methanesulfonamide]
5.00 to 5.70 |  | CN(C)C1CCN(CCCS(=O)(=O)NC(=O)Nc2c3c(cc4c2CCC4)CCC3)CC1 [Example 2, 3-(4-(Dimethylamino)piperidin-1-yl)-N-((1,2,3,5,6,7-hexahydro-s-indacen-4-yl)carbamoyl)propane-1-sulfonamide, potassium salt]
5.00 to 5.70 |  | CC(C)N1CCC(CS(=O)(=O)NC(=O)Nc2c3c(cc4c2CCC4)CCC3)C1 (stereo not shown) [Example 25, N-((1,2,3,5,6,7-Hexahydro-s-indacen-4-yl)carbamoyl)-1-(1-isopropylpyrrolidin-3-yl)methanesulfonamide, Potassium Salt]
5.70 to 5.80 |  | O=C(Nc1c2c(cc3c1CCC3)CCC2)NS(=O)(=O)CCCN1CCOCC1 [Example 15, N-((1,2,3,5,6,7-Hexahydro-s-indacen-4-yl)carbamoyl)-3-morpholinopropane-1-sulfonamide, Potassium Salt]
5.00 to 5.70 |  | CN1CCC(CS(=O)(=O)NC(=O)Nc2c(-c3ccncc3)cc(F)c3c2CCC3)C1 (stereo not shown) [Example 60, N-((7-Fluoro-5-(pyridin-4-yl)-2,3-dihydro-1H-inden-4-yl)carbamoyl)-1-(1-methylpyrrolidin-3-yl)methanesulfonamide]
5.00 to 5.70 |  | O=C(Nc1c(-c2ccncc2)cc(F)c2c1CCC2)NS(=O)(=O)Cc1cccnc1 [Example 56, N-((7-Fluoro-5-(pyridin-4-yl)-2,3-dihydro-1H-inden-4-yl)carbamoyl)-1-(pyridin-3-yl)methanesulfonamide]
 | ≥ 5.30 | CCN(CCCCS(=O)(=O)NC(=O)Nc1c2c(cc3c1CCC3)CCC2)Cc1ccccc1 [Example 13, 4-(Benzyl(ethyl)amino)-N-((1,2,3,5,6,7-hexahydro-s-indacen-4-yl)carbamoyl)butane-1-sulfonamide, potassium salt]
 | ≥ 5.12 | CN(C)C(=O)CCS(=O)(=O)NC(=O)Nc1c2c(cc3c1CCC3)CCC2 [Example 97, 3-(N-((1,2,3,5,6,7-Hexahydro-s-indacen-4-yl)carbamoyl)sulfamoyl)-N,N-dimethylpropanamide]
 | ≥ 6.00 | COc1cc(-c2ccc3c(c2NC(=O)NS(=O)(=O)CC2CCN(C)C2)CCC3)ccn1 (stereo not shown) [Example 59, N-((5-(2-Methoxypyridin-4-yl)-2,3-dihydro-1H-inden-4-yl)carbamoyl)-1-(1-methylpyrrolidin-3-yl)methanesulfonamide]
 | ≥ 5.00 | CC1(C)C2CC[C@@]1(CS(=O)(=O)NC(=O)Nc1c3c(cc4c1CCC4)CCC3)/C(=N/O)C2 [Example 71, N-((1,2,3,5,6,7-Hexahydro-s-indacen-4-yl)carbamoyl)-1-((1S,E)-2-(hydroxyimino)-7,7-dimethylbicyclo[2.2.1]heptan-1-yl)methane sulfonamide, Potassium Salt]
 | ≥ 5.30 | CON(C)CCCS(=O)(=O)NC(=O)Nc1c2c(cc3c1CCC3)CCC2 [Example 70, N-((1,2,3,5,6,7-Hexahydro-s-indacen-4-yl)carbamoyl)-3-(methoxy(methyl)amino)propane-1-sulfonamide, Potassium Salt]
 | ≥ 6.00 | O=C(Nc1c2c(cc3c1CCC3)CCC2)NS(=O)(=O)CCN1CCCCC1 [Example 28, N-((1,2,3,5,6,7-Hexahydro-s-indacen-4-yl)carbamoyl)-2-(piperidin-1-yl)ethane-1-sulfonamide, Potassium Salt]
 | ≥ 5.30 | COCCCS(=O)(=O)NC(=O)Nc1c2c(cc3c1CCC3)CCC2 [Example 14, N-((1,2,3,5,6,7-Hexahydro-s-indacen-4-yl)carbamoyl)-3-methoxypropane-1-sulfonamide, Potassium Salt]
 | ≥ 5.30 | O=C(Nc1c2c(cc3c1CCC3)CCC2)NS(=O)(=O)CCN1CC(F)C1 [Example 90, 2-(3-Fluoroazetidin-1-yl)-N-((1,2,3,5,6,7-hexahydro-s-indacen-4-yl)carbamoyl)ethane-1-sulfonamide]
 | ≥ 5.30 | CN1CCOC(CS(=O)(=O)NC(=O)Nc2c3c(cc4c2CCC4)CCC3)C1 (stereo not shown) [Example 74, N-((1,2,3,5,6,7-Hexahydro-s-indacen-4-yl)carbamoyl)-1-(4-methylmorpholin-2-yl)methanesulfonamide, Potassium Salt]
